The text below walks through data of PMC10721928, “Structures revealing mechanisms of resistance and collateral sensitivity of Plasmodium falciparum to proteasome inhibitors” (Nature Communications, 2023).

Assay [1] deals with Mutants resistant to proteasome inhibitors. As to conditions: versus corresponding wild-type strains; cited from earlier work. An excerpt:
(§1) Mutations in Kelch13 (K13) are associated with ART resistance at the ring stage in laboratory settings[20]–[22]. […] Even a strain with doub ...

For another assay, the system named is Cam3.I^Rev. Briefly: Ring-stage survival assay, revertant. In kind it is cell-based, Plasmodium falciparum. As to conditions: 700 nM, 6 h. The protocol: (§2) Ring-stage survival assays (RSA) were performed as reported. Parasite cultures, artemisinin resistant Cam3.I^R539T and the genetically engineered artemisinin sensitive revertant Cam3.I^rev, were synchronized with 5% sorbitol and a Percoll-sorbitol gradient to obtain tightly synchronized late-stage parasites. After isolation, the tightly synchronized parasites were then allowed to reinvade fresh red blood cells for 3 h and the microscopically confirmed ring stage parasite cultures were again subjected to 5% sorbitol to obtain 0–3 h rings. The isolated ring stage cultures were then plated into a 96-well plate at 0.5% parasitemia and treated with DHA and TDI-8304 at 700 nM at 37 °C in standard gas conditions for 6 h. The plates were then spun and washed to remove compounds and replenished with fresh medium without compounds. Parasite growth was assessed 66 h later using flow cytometry (Becton-Dickson flow cytometer) and nucleic acid stains HO (Hoechst 33342) and TO (thiazole orange).

A further assay deals with Cam3.I^R539T. Briefly: Ring-stage survival assay, ART-resistant. In kind it is cell-based, Plasmodium falciparum. The conditions noted are these: 700 nM, 6 h. The protocol:
as §2

The next assay concerns Dd2. The assay is described as follows: Parasite growth inhibition assay, Dd2. The conditions noted are these: Plasmodium falciparum. It counts as cell-based. The protocol: (§3) Parasite growth inhibition assays for P. falciparum wild type and mutants were performed as reported[19],[32].
Another assay concerns DR1. The assay is described as follows: Parasite growth inhibition assay, DR1. In kind it is cell-based. As to conditions: Plasmodium falciparum, read-out: EC50 (Fig. 1e). The protocol:
as §3

For a further assay, the system named is DR2. Briefly: Parasite growth inhibition assay, DR2. It counts as cell-based. The conditions noted are these: Plasmodium falciparum, read-out: EC50 (Fig. 1e). The protocol:
as §3

In the next assay the test system is DR4. The assay is described as follows: Parasite growth inhibition assay, DR4. In kind it is cell-based. The conditions noted are these: Plasmodium falciparum, Exp 2; read-out: EC50 (Fig. 1e). The protocol: as §3
The next assay has as its system DR1/2/4. Briefly: Parasite growth inhibition assay, DHA-selected clones. In kind it is cell-based, Plasmodium falciparum. The protocol:
as §3

The subject of assay [2] is strain with double mutations in both the proteasome and K13. As to conditions: versus wild-type strain; cited from earlier work.
Source text: as §1

A further assay has as its system P. falciparum 3D7A. The conditions noted are these: compared with pyrimethamine; cited from earlier work. The text has this:
We previously reported two classes of non-covalent Pf20S selective inhibitors, one with a fast-on/off kinetics, represented by TDI-4258[19], and one with a time-dependent inhibition kinetics, represented by TDI-8304 (Fig. 1a)[16]. […] To investigate if inhibitors of the same target with diffe ...

Where two headings read alike, the source gives them in different places.

Turning to `C[C@@H]1CC[C@H]2[C@@H](C)C(=O)O[C@@H]3O[C@@]4(C)CC[C@@H]1[C@]32OO4` [ART, artemisinin], the “susceptibility to ART” value in [1] is given as “more susceptible to ART than the corresponding wild-type strains”.

In general, EC50 refers to the concentration giving half of the maximal effect. As to `C[C@H]1[C@@H](O)O[C@@H]2O[C@@]3(C)CC[C@H]4[C@H](C)CC[C@@H]1[C@@]24OO3` [DHA, dihydroartemisinin], the “ring-stage survival result in words, K13 Rev” value in the assay with Cam3.I^Rev (0–3 h rings, readout 66 h later) was “highly susceptible”. Moreover, the “ring-stage survival (Fig. 1c)” value in the assay with Cam3.I^Rev (Exp 1) is given as 1.86; with Cam3.I^Rev (Exp 2), -0.27; with Cam3.I^Rev (Exp 3) it was 3.91; in the assay on Cam3.I^R539T (Exp 1), 18.01; in the assay on Cam3.I^R539T (Exp 2) it was 10.3; with Cam3.I^R539T (Exp 3), 6.84. Also, the “ring-stage survival result in words, K13 R539T” value in the assay with Cam3.I^R539T (0–3 h rings, readout 66 h later, means of three independent experiments, paired t test) is “highly resistant”. Moreover, the EC50 with Dd2 (DD2, read-out: EC50 (Fig. 1e), Exp 1) was 1 nM; in the assay with Dd2 (DD2, read-out: EC50 (Fig. 1e), Exp 2), 0.9 nM; in the assay on DR1 (Exp 1), 12.2 nM; in the assay with DR1 (Exp 2), 7.1 nM; with DR2 (Exp 1), 10.7 nM; with DR2 (Exp 2), 8.7 nM. Moreover, the EC50 in the assay with DR4 is 8.1 nM. In addition, in the assay with DR1/2/4 (DHA-selected clones versus Dd2), the “EC50 shift in the erythrocyte assays” value is given as ~ 10 fold. The “sensitivity of DR1/2/4 in words” value in the assay with DR1/2/4 (trophozoite stage, versus Dd2) was “highly resistant”. Also, the “susceptibility to DHA” value in assay [2] is “more susceptible to DHA than the wild-type strain”.

Take `Cc1cc(C(=O)N[C@@H](CC(=O)NC(C)(C)C)C(=O)NCCNC(=O)c2cccc(-n3cccn3)c2)no1` [TDI-4258]: the “in vitro parasite reduction ratio” value with P. falciparum 3D7A was “modest in vitro parasite reduction ratio similar to that of the antimalarial drug pyrimethamine”.
